Data as given in PubChem BioAssay AID488810 (Sanford-Burnham Center for Chemical Genomics, 2010).
Where “and” joins values, the source holds several entries; their conditions need not be identical. Identical values can stand only once. Calls of active or inactive are those of the source.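 How the source made its calls: active means compounds with IC50 below 20 µM; inactive means the rest.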

The compounds below were run against Type-1 angiotensin II receptor (Homo sapiens) (UniProt P30556) (assay: AGTR1 antagonism selectivity check – cell-based, CHO-K1 PathHunter, luminescence, selectivity assay for APJ antagonist project, SAR follow-up (AID 488810;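 further: agonist challenge with angiotensin II at 50 nM final near its EC80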)). Details: CHO-K1 AGTR1 PathHunter beta-arrestin, antagonist mode.
Chain of Type-1 angiotensin II receptor (Homo sapiens) (P30556 whole entry, looked up): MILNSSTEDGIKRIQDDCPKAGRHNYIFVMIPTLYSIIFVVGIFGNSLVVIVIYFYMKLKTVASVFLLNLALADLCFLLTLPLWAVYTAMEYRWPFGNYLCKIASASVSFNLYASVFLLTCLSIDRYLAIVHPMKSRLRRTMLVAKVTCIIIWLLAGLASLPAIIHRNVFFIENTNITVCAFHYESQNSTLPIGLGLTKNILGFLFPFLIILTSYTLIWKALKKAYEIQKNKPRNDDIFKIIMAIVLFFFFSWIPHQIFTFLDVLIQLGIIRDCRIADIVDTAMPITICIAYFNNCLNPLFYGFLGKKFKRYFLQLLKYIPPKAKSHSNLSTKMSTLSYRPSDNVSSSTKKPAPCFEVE

IC50	Structure (SMILES)
> 79 µM (inactive)	COc1ccc(C2CC3(CC(C)(C)NC(=S)N3)Oc3cc(O)cc(C)c32)cc1 (stereo not drawn)
5.13 µM and 8.85 µM	CSc1cccc(N=C2C(=O)Nc3ccccc32)c1
> 79 µM (inactive)	C=CCSC1=NC2(CC(c3ccccc3)c3c(C)cc(O)cc3O2)CC(C)(C)N1 (stereo not drawn)
> 79 µM (inactive)	Cc1ccnc(SCc2cc(=O)c(OC(=O)c3ccc(C(F)(F)F)cc3)co2)n1
9.49 µM	O=C1Nc2ccccc2C1=Nc1ccc(F)cc1
> 79 µM (inactive)	Cc1cc(C)nc(SCc2ccc(OC(=O)c3ccccc3)c(Cl)c2)n1
7.56 µM	CCOc1ccc(N=C2C(=O)Nc3ccc(C)c(Br)c32)cc1
> 79 µM (inactive)	COc1cccc(C(=O)Oc2coc(CSc3nccc(C)n3)cc2=O)c1
9.04 µM	O=c1cc(CSc2ccc(Cl)cc2)nc(-c2ccccn2)[nH]1
> 79 µM (inactive)	C=CCOc1cccc(CSc2ncccn2)c1
inactive	CC(C(=O)OCC(=O)c1cccc([N+](=O)[O-])c1)N1C(=O)C2C3C=CC(C3)C2C1=O (stereo not drawn)
> 79 µM (inactive)	CC(C)Oc1ccc(C(=O)Oc2coc(CSc3ncccn3)cc2=O)cc1
9.73 µM	O=C(COC(=O)c1cnccn1)c1ccc(Cl)c([N+](=O)[O-])c1
> 79 µM (inactive)	Cc1ccnc(SCc2cc(=O)c(OC(=O)c3cccc(Cl)c3)co2)n1
3.24 µM	NC(=O)c1ccccc1NCC(=O)c1ccc(Cl)cc1
> 79 µM (inactive)	Cc1ccnc(SCc2cccc(O)c2)n1
inactive	Cc1cccc(C2CC3(CC(C)(C)NC(=S)N3)Oc3cc(O)cc(C)c32)c1 (stereo not drawn)
inactive	O=S(=O)(NN=Cc1ccc(-c2ccccc2Cl)o1)c1ccccc1
> 79 µM (inactive)	Cc1cc(C)nc(SCc2cc(=O)c(OC(=O)c3ccc(Cl)c([N+](=O)[O-])c3)co2)n1
3.37 µM	Cc1ccc(C(=O)CNc2ccccc2)cc1
3.32 µM	Cc1cccc(N=C2C(=O)Nc3c(Cl)cccc32)c1
1.29 µM	CC(=O)c1ccc(N=C2C(=O)Nc3ccccc32)cc1
inactive	CCC[N+](CC#Cc1ccccc1)(CCC)CC(=O)c1ccc(Cl)cc1
> 79 µM (inactive)	COc1cc(C(=O)Oc2coc(CSc3ncccn3)cc2=O)c([N+](=O)[O-])cc1OC
> 79 µM (inactive)	C=CCSC1=NC2(CC(c3ccc(C)cc3)c3c(C)cc(OC(C)=O)cc3O2)CC(C)(C)N1 (stereo not drawn)

IC50	Structure (SMILES)
1.27 µM	Cc1ccc(C)c(NCC(=O)c2ccc(Cl)cc2)c1
> 79 µM (inactive)	Cc1ccnc(SCc2cc(=O)c(OC(=O)c3ccc(OC(F)(F)F)cc3)co2)n1
> 79 µM (inactive)	Cc1cc(C)nc(SCc2cc(=O)c(OC(=O)c3ccc(C)c([N+](=O)[O-])c3)co2)n1
16.5 µM	S=C1NCCc2ccccc2C1c1ccccc1Cl (stereo not drawn)
16.1 µM	COC(=O)C1NN=C(C(=O)c2ccc(Cl)cc2)C1c1ccc(OC)cc1 (stereo not drawn)
3.44 µM	Cc1ccc(C(=O)CNc2cc(C)ccc2C)cc1
> 79 µM (inactive)	CC1(C)CC2(CC(c3ccccc3Cl)c3ccc(OC(=O)c4ccccc4)cc3O2)NC(=S)N1 (stereo not drawn)
> 79 µM (inactive)	CSC1=NC2(CC(c3ccccc3)c3cc(Cl)c(O)cc3O2)CC(C)(C)N1 (stereo not drawn)
> 79 µM (inactive)	Cc1ccnc(SCc2cc(=O)c(OC(=O)c3ccccc3C)co2)n1
inactive	Cc1cccc(C2CC3(CC(C)(C)NC(=S)N3)Oc3cc(O)c(Cl)cc32)c1 (stereo not drawn)
> 79 µM (inactive)	Cc1cc(C)nc(SCc2cc(=O)c(OC(=O)c3ccc(S(=O)(=O)N(C)C)cc3)co2)n1
> 79 µM (inactive)	Cc1ccc(C(=O)Oc2coc(CSc3ncccn3)cc2=O)cc1[N+](=O)[O-]
> 79 µM (inactive)	O=C(Oc1coc(CSc2ncccn2)cc1=O)c1ccc(C(F)(F)F)cc1
inactive	Cc1ccnc(SCc2cc(=O)c(OC(=O)c3cc([N+](=O)[O-])ccc3Cl)co2)n1
4.99 µM and > 79 µM (inactive)	CC(C)OC(=O)CN1C(=O)C(=O)c2ccccc21
17.9 µM	FC(F)(F)c1cccc(Sc2nc(-c3ccccc3)nnc2C(F)(F)F)c1
10 µM	CCN(CC)CC(=O)c1ccc(-c2ccccc2)cc1
> 79 µM (inactive)	Cc1ccc(C(=O)Oc2coc(CSc3nccc(C)n3)cc2=O)cc1
14.1 µM	COc1cccc(/C=C/c2ccc3cccc(O)c3n2)c1OC
3.92 µM	Cc1ccc(N=C2C(=O)Nc3ccc(Br)cc32)cc1
> 79 µM (inactive)	O=C(Oc1coc(CSc2ncccn2)cc1=O)c1ccc(F)cc1
> 79 µM (inactive)	CCOc1ccc(C(=O)Oc2coc(CSc3ncccn3)cc2=O)cc1
8.21 µM	CC(C)(C)c1ccc(-n2nc(C#N)c(Cl)cc2=O)cc1
2.56 µM	Cc1ccc(NCC(=O)c2ccccc2)cc1
> 79 µM (inactive)	CC(C)(C)c1ccc(C(=O)Oc2coc(CSc3ncccn3)cc2=O)cc1

IC50	Structure (SMILES)
> 79 µM (inactive)	Cc1ccc(NCC(O)c2ccccc2)cc1 (stereo not drawn)
> 79 µM (inactive)	O=C(Oc1coc(CSc2ncccn2)cc1=O)c1ccc(S(=O)(=O)N2CCCC2)cc1
> 79 µM (inactive)	O=C(Oc1coc(CSc2ncccn2)cc1=O)c1ccc(Cl)c([N+](=O)[O-])c1
> 79 µM (inactive)	Cc1cc(C)nc(SCc2cccc(O)c2)n1
> 79 µM (inactive)	O=C(Oc1coc(CSc2ccccc2)cc1=O)c1ccc(Cl)c([N+](=O)[O-])c1
> 79 µM (inactive)	Cc1ccc(C(=O)Oc2coc(CSc3ncccn3)cc2=O)cc1C
> 79 µM (inactive)	Cc1ccnc(SCc2cc(=O)c(OC(=O)c3cccs3)co2)n1
> 79 µM (inactive)	C=CCOc1ccc(CSc2nc(C)cc(C)n2)cc1Cl
inactive	O=C(Oc1coc(CSc2ncccn2)cc1=O)c1cc([N+](=O)[O-])ccc1Cl
inactive	COc1ccc(S(=O)(=O)NNc2nc(C)cc(C)n2)cc1[N+](=O)[O-]
3.03 µM	O=C(CNc1cccc(Cl)c1)c1ccc(Br)cc1
> 79 µM (inactive)	Cc1ccnc(SCc2cc(=O)c(OC(=O)c3ccc(S(=O)(=O)N4CCCC4)cc3)co2)n1
inactive	O=C(Oc1coc(CSc2ncccn2)cc1=O)c1cc(Cl)ccc1[N+](=O)[O-]
> 79 µM (inactive)	Cc1ccnc(SCc2cc(=O)c(OC(=O)c3ccc(F)cc3)co2)n1
> 79 µM (inactive)	Cc1cc(C)nc(SCc2cc(=O)c(OC(=O)c3cccc([N+](=O)[O-])c3C)co2)n1
15.8 µM	Cc1ccc(OCC(=O)OCC(=O)c2cccc([N+](=O)[O-])c2)cc1C
> 79 µM (inactive)	CCN(CC)S(=O)(=O)c1ccc(C(=O)Oc2coc(CSc3ncccn3)cc2=O)cc1
5.01 µM	Cc1cc(C)nc(NNS(=O)(=O)c2c(F)cc(F)cc2Br)n1
> 79 µM (inactive)	CC1(C)CC2(CC(c3ccccc3F)c3cc(Cl)c(O)cc3O2)NC(=S)N1 (stereo not drawn)
> 79 µM (inactive)	Cc1c(C(=O)Oc2coc(CSc3ncccn3)cc2=O)cccc1[N+](=O)[O-]
inactive	CCOC(=O)C1=NNC(C(=O)c2ccc(Cl)cc2)C1c1ccccc1 (stereo not drawn)
inactive	Cc1cc(C)nc(SCc2cc(=O)c(OC(=O)c3cc(Cl)ccc3[N+](=O)[O-])co2)n1
inactive	Cc1cc(C)nc(SCc2cc(=O)c(OC(=O)c3cc([N+](=O)[O-])ccc3Cl)co2)n1
